Experimental findings from patent US20120165223A1 (priority 2006, published 2012) are described below.

In this test the test system is crypt cells of the colon of HFA mice. Particulars: DNA chip, colonic crypt cells, 200 mg/kg orally four days. The protocol:
The collected colon is opened and intestinal content is cleaned with a sterilized saline solution and put in a cryomold in the longitudinal direction to be embedded as an OCT compound and then it is maintained in a freezer at −80° C. The frozen tissue is cut to have the thickness of 8 μm using a cryotome, put on a glass slide (HistoGene LCM slide, Arcturus) and cleaned using a staing (HistoGene LCM frozen section staing kit, Arcturus) and then a hematoxylin stain is performed and then dehydrated. The stained colonic tissue slide of the dyed mice is put on a laser captured microdissector (PixCell II, Arcturus) and crypt cells are isolated from the colon by a laser.
The amplified aRNA (24 μl) of 10 μg is mixed with random hexamer (5 mg/Ml) of 2 μl to be 24 μl which is heated for 10 minutes at 70° C. The first strand master mix liquid of 26 μl containing Cy3- or Cy5-dUTP (1 mM, respectively) is added to aRNA and reacted for two hours at 37° C. […] After the cDNA is deactivated for three minutes at 98° C., a control target of 25 μl with 2× hybridization buffer of 105 μl (Agilent In situ Hybridization kit) to be instilled on a mouse DNA microarray chip (TwinChip Mouse 7.4K cDNA array, Digital Genomics, Seoul, Korea) and hybridized for 17 hours at 60° C. […] Each fluorescence intensity is obtained by performing a global normalization and measuring the ratio of expressing Cy3- and Cy5- fluorescence with respect to one gene.

In the case of `O=C(O)c1cn(C2CC2)c2cc(N3CCNCC3)c(F)cc2c1=O` [Cip, Ciprofloxacin], the “Ang gene expression in comparison with HFA (FIG. 4a)” value was “nearly two or four times”, the “Casp14 gene expression in comparison with HFA (FIG. 3A)” value was “increase the expression of the genes”, the “Eif2ak3 gene expression in comparison with HFA (FIG. 3A)” value is recorded as “increase the expression of the genes” and the “I16 gene expression in comparison with HFA (FIG. 3A)” value is “increase the expression of the genes”. Further, the “Mpp1 gene expression in comparison with HFA (FIG. 4a)” value is “prevent genes from expressing themselves more than twice”, the “Mt1 gene expression in comparison with HFA (FIG. 4a)” value is on record as “nearly two or four times”, the “S1c26a1 gene expression in comparison with HFA (FIG. 4a)” value is “prevent genes from expressing themselves more than twice” and the “Saa3 gene expression in comparison with HFA (FIG. 4a)” value is on record as “prevent genes from expressing themselves more than twice”. Moreover, the “Spn2a gene expression in comparison with HFA (FIG. 3A)” value is recorded as “prevent genes from expressing themselves more than twice” and the “Tegt gene expression in comparison with HFA (FIG. 3A)” value was “prevent genes from expressing themselves more than twice”.
As for `CN(C)[C@@H]1C(=O)C(C(N)=O)=C(O)[C@@]2(O)C(=O)C3=C(O)c4c(O)cccc4[C@@](C)(O)[C@H]3C[C@@H]12` [TC, Tetracycline], the “Ang gene expression in comparison with HFA (FIG. 4a)” value was “nearly two or four times”, the “Casp14 gene expression in comparison with HFA (FIG. 3A)” value is on record as “increase the expression of the genes”, the “Eif2ak3 gene expression in comparison with HFA (FIG. 3A)” value was “increase the expression of the genes” and the “I16 gene expression in comparison with HFA (FIG. 3A)” value is given as “increase the expression of the genes”. The “Mpp1 gene expression in comparison with HFA (FIG. 4a)” value is given as “prevent genes from expressing themselves more than twice”, the “Mt1 gene expression in comparison with HFA (FIG. 4a)” value was “nearly two or four times”, the “S1c26a1 gene expression in comparison with HFA (FIG. 4a)” value is on record as “prevent genes from expressing themselves more than twice” and the “Saa3 gene expression in comparison with HFA (FIG. 4a)” value is on record as “prevent genes from expressing themselves more than twice”. Besides, the “Spn2a gene expression in comparison with HFA (FIG. 3A)” value is “prevent genes from expressing themselves more than twice” and the “Tegt gene expression in comparison with HFA (FIG. 3A)” value is “prevent genes from expressing themselves more than twice”.
